Molecular target: neuraminidase
Assay: Inhibition kinetics
Assay type: biochemical, influenza virus
Conditions: decrease in Vmax while Km remained stable

## CC1=CC(=O)C2(O1)C(c1cc3oc(=O)c4cc(O)c(O)cc4c3c(=O)o1)=Cc1cc(O)c(O)cc12 (centres unmarked) [compound 1, phelligridin E]
  Kinetic mode: noncompetitive

## O=C1C=C(/C=C/c2ccc(O)c(O)c2)OC12C(c1cc3oc(=O)c4cc(O)c(O)cc4c3c(=O)o1)=Cc1cc(O)c(O)cc12 (centres unmarked) [compound 2, phelligridin G]
  Kinetic mode: noncompetitive

From article PMC4945539 (Mycobiology, 2016)
